Tests used:
[1] = system: SW-620; test: NCI-60 antiproliferative screen (SRB); format: cell-based, human; conditions: Homo sapiens; 10 µM single dose, 48 h; SW-620 (Colon); read-out: Growth inhibition (%)
[2] = system: HS 578T; test: NCI-60 antiproliferative screen (SRB); format: cell-based, human; conditions: Homo sapiens; 10 µM single dose, 48 h; HS 578T (Breast); read-out: Growth inhibition (%)
[3] = system: NCI-H226; test: NCI-60 antiproliferative screen (SRB); format: cell-based, human; conditions: Homo sapiens; 10 µM single dose, 48 h; NCI-H226 (NSCLC); read-out: Growth inhibition (%)
[4] = system: HT29; test: NCI-60 antiproliferative screen (SRB); format: cell-based, human; conditions: Homo sapiens, HT-29; 10 µM single dose, 48 h; HT29 (Colon); read-out: Growth inhibition (%)
[5] = system: IGROV1; test: NCI-60 antiproliferative screen (SRB); format: cell-based, human; conditions: Homo sapiens, IGROV-1; 10 µM single dose, 48 h; IGROV1 (Ovarian); read-out: Growth inhibition (%)
[6] = system: SK-MEL-5; test: NCI-60 antiproliferative screen (SRB); format: cell-based, human; conditions: Homo sapiens; 10 µM single dose, 48 h; SK-MEL-5 (Melanoma); read-out: Growth inhibition (%)
[7] = system: 786-0; test: NCI-60 antiproliferative screen (SRB); format: cell-based, human; conditions: Homo sapiens; 10 µM single dose, 48 h; 786-0 (Renal); read-out: Growth inhibition (%)
[8] = system: LOX IMVI; test: NCI-60 antiproliferative screen (SRB); format: cell-based, human; conditions: Homo sapiens; 10 µM single dose, 48 h; LOX IMVI (Melanoma); read-out: Growth inhibition (%)
[9] = system: MDA-MB-435; test: NCI-60 antiproliferative screen (SRB); format: cell-based, human; conditions: Homo sapiens; 10 µM single dose, 48 h; MDA-MB-435 (Melanoma); read-out: Growth inhibition (%)
[10] = system: SR; test: NCI-60 antiproliferative screen (SRB); conditions: Homo sapiens, 48 h, read-out: Growth inhibition (%)
Procedure: (§1) Anticancer activity was tested against 60 cancer cell lines (NCI-60) after 48h treatments with a single dosage of 10 μM of compounds by using sulforhodamine B assay [39] on the traditional 96-well platform. […] The human cancer cell lines of the NCI-60 panel are grown in RPMI 1640 medium supplemented with 5% FBS (fetal bovine serum) and 2 mM L-glutamine. […] For further analysis of promising compounds, five dose screens were performed against the NCI-60 panel. Drug treatments are performed in 5 doses using 10-fold or ½ log dose dilutions.

[11] = system: NCI-H23; test: NCI-60 antiproliferative screen (SRB); format: cell-based, human; conditions: Homo sapiens; 10 µM single dose, 48 h; NCI-H23 (NSCLC); read-out: Growth inhibition (%)
[12] = system: TK-10; test: NCI-60 antiproliferative screen (SRB); format: cell-based, human; conditions: Homo sapiens; 10 µM single dose, 48 h; TK-10 (Renal); read-out: Growth inhibition (%)
[13] = system: HOP-62; test: NCI-60 antiproliferative screen (SRB); format: cell-based, human; conditions: Homo sapiens; 10 µM single dose, 48 h; HOP-62 (NSCLC); read-out: Growth inhibition (%)
[14] = system: SF-268; test: NCI-60 antiproliferative screen (SRB); format: cell-based, human; conditions: Homo sapiens; 10 µM single dose, 48 h; SF-268 (CNS); read-out: Growth inhibition (%)
[15] = system: NCI-H322M; test: NCI-60 antiproliferative screen (SRB); format: cell-based, human; conditions: Homo sapiens; 10 µM single dose, 48 h; NCI-H322M (NSCLC); read-out: Growth inhibition (%)
[16] = system: SF-539; test: NCI-60 antiproliferative screen (SRB); format: cell-based, human; conditions: Homo sapiens; 10 µM single dose, 48 h; SF-539 (CNS); read-out: Growth inhibition (%)
[17] = system: MALME-3M; test: NCI-60 antiproliferative screen (SRB); format: cell-based, human; conditions: Homo sapiens; 10 µM single dose, 48 h; MALME-3M (Melanoma); read-out: Growth inhibition (%)
[18] = system: U251; test: NCI-60 antiproliferative screen (SRB); format: cell-based, human; conditions: Homo sapiens, U-251; 10 µM single dose, 48 h; U251 (CNS); read-out: Growth inhibition (%)
[19] = system: HCC-2998; test: NCI-60 antiproliferative screen (SRB); format: cell-based, human; conditions: Homo sapiens; 10 µM single dose, 48 h; HCC-2998 (Colon); read-out: Growth inhibition (%)
[20] = system: ACHN; test: NCI-60 antiproliferative screen (SRB); format: cell-based, human; conditions: Homo sapiens; 10 µM single dose, 48 h; ACHN (Renal); read-out: Growth inhibition (%)
[21] = system: RXF 393; test: NCI-60 antiproliferative screen (SRB); format: cell-based, human; conditions: Homo sapiens; 10 µM single dose, 48 h; RXF 393 (Renal); read-out: Growth inhibition (%)
[22] = system: MCF7; test: NCI-60 antiproliferative screen (SRB); format: cell-based, human; conditions: Homo sapiens; 10 µM single dose, 48 h; MCF7 (Breast); read-out: Growth inhibition (%)
[23] = system: SNB-75; test: NCI-60 antiproliferative screen (SRB); conditions: Homo sapiens, SNB-75, 48 h, read-out: Growth inhibition (%)
Procedure: as §1

[24] = system: HOP-92; test: NCI-60 antiproliferative screen (SRB); format: cell-based, human; conditions: Homo sapiens; 10 µM single dose, 48 h; HOP-92 (NSCLC); read-out: Growth inhibition (%)
[25] = system: T-47D; test: NCI-60 antiproliferative screen (SRB); format: cell-based, human; conditions: Homo sapiens, T47D; 10 µM single dose, 48 h; T-47D (Breast); read-out: Growth inhibition (%)
[26] = system: BT-549; test: NCI-60 antiproliferative screen (SRB); format: cell-based, human; conditions: Homo sapiens; 10 µM single dose, 48 h; BT-549 (Breast); read-out: Growth inhibition (%)
[27] = system: DU-145; test: NCI-60 antiproliferative screen (SRB); format: cell-based, human; conditions: Homo sapiens; 10 µM single dose, 48 h; DU-145 (Prostate); read-out: Growth inhibition (%)
[28] = system: NCI-60 human cancer cell lines; test: NCI-60 screen, full panel summary; format: cell-based; conditions: 10 µM single dose; for Mean Growth Percent: all NCI-60 cell lines; for inhibition at 10 µM: Homo sapiens, read-out: Range of Growth Inhibition on All Cells
Procedure: In a comprehensive test, compounds were assayed at a single dose concentration (10^−5 M) in the full panel of NCI-60 cancer cell lines.

[29] = system: NCI-H460; test: NCI-60 antiproliferative screen (SRB); format: cell-based, human; conditions: Homo sapiens; 10 µM single dose, 48 h; NCI-H460 (NSCLC); read-out: Growth inhibition (%)

O=C1Nc2ccc(F)cc2C1=Cc1ccc(OCc2ccccc2)cc1 (mixture of isomers) [Compound 5b, (E/Z)-3-[4-(Benzyloxy)benzylidene]-5-fluoroindolin-2-one]
inhibition at 10 µM [1]: -2.34% | inhibition at 10 µM [2]: -0.32% | inhibition at 10 µM [3]: 9.53% | inhibition at 10 µM [4]: 2.38% | inhibition at 10 µM [5]: 2.92% | inhibition at 10 µM [6]: -0.59% | inhibition at 10 µM [7]: 0.43% | inhibition at 10 µM [8]: -6.24% | inhibition at 10 µM [9]: 5.59% | inhibition at 10 µM [10]: -0.14% | inhibition at 10 µM [11]: 1.73% | inhibition at 10 µM [12]: 4.82% | inhibition at 10 µM [13]: -1.2% | inhibition at 10 µM [14]: 5.43% | inhibition at 10 µM [15]: 2.81% | inhibition at 10 µM [16]: 4.67% | inhibition at 10 µM [17]: 7.33% | inhibition at 10 µM [18]: 0.4% | inhibition at 10 µM [19]: -9.12% | inhibition at 10 µM [20]: -7.3% | inhibition at 10 µM [21]: 0.31% | inhibition at 10 µM [22]: 7.57% | inhibition at 10 µM [23]: 5.15% | inhibition at 10 µM [24]: 4.77% | inhibition at 10 µM [25]: 3.79% | inhibition at 10 µM [26]: -6.03% | inhibition at 10 µM [27]: 0.4% | Positive Cytostatic Effect (cell lines with percent growth from 0 to 50 / total number of cell lines) [28]: 0/57 | Positive Cytotoxic Effect (cell lines with percent growth of <0 / total number of cell lines) [28]: 0/57 | Sensitive/Total Cell Lines [28]: 0/57 | antiproliferative activity (in words) [28]: weak antiproliferative activity | Mean Growth Percent [28]: 1.62 | inhibition at 10 µM [28]: -10.8 to 9.53% | inhibition at 10 µM [29]: -0.94%

O=C1Nc2ccc(Cl)cc2C1=Cc1ccc(OCc2ccccc2)cc1 (mixture of isomers) [Compound 5c, (E/Z)-3-[4-(Benzyloxy)benzylidene]-5-chloroindolin-2-one]
inhibition at 10 µM [1]: 1.08% | inhibition at 10 µM [2]: -2.25% | inhibition at 10 µM [3]: 11.1% | inhibition at 10 µM [4]: -2.95% | inhibition at 10 µM [5]: -5.14% | inhibition at 10 µM [6]: 1.9% | inhibition at 10 µM [7]: -2.86% | inhibition at 10 µM [8]: 0.14% | inhibition at 10 µM [9]: -3.79% | inhibition at 10 µM [10]: -0.06% | inhibition at 10 µM [11]: -1.96% | inhibition at 10 µM [12]: -12.7% | inhibition at 10 µM [13]: 3.77% | inhibition at 10 µM [14]: 3.26% | inhibition at 10 µM [15]: -0.07% | inhibition at 10 µM [16]: 4.12% | inhibition at 10 µM [17]: -13% | inhibition at 10 µM [18]: -1.54% | inhibition at 10 µM [19]: -3.96% | inhibition at 10 µM [20]: -1.45% | inhibition at 10 µM [21]: -5.38% | inhibition at 10 µM [22]: 16% | inhibition at 10 µM [23]: 13.1% | inhibition at 10 µM [24]: 9.75% | inhibition at 10 µM [25]: 4.11% | inhibition at 10 µM [26]: -2.68% | inhibition at 10 µM [27]: -5.61% | Positive Cytostatic Effect (cell lines with percent growth from 0 to 50 / total number of cell lines) [28]: 0/59 | Positive Cytotoxic Effect (cell lines with percent growth of <0 / total number of cell lines) [28]: 0/59 | Sensitive/Total Cell Lines [28]: 0/59 | antiproliferative activity (in words) [28]: weak antiproliferative activity | Mean Growth Percent [28]: 0.10 | inhibition at 10 µM [28]: -13 to 23.9% | inhibition at 10 µM [29]: -3.66%

O=C1Nc2cc(Cl)ccc2C1=Cc1ccc(OCc2ccccc2)cc1 (mixture of isomers) [Compound 5d, (E/Z)-3-[4-(Benzyloxy)benzylidene]-6-chloroindolin-2-one]
inhibition at 10 µM [1]: 0.6% | inhibition at 10 µM [2]: 3.27% | inhibition at 10 µM [3]: 7.13% | inhibition at 10 µM [4]: -5.27% | inhibition at 10 µM [5]: 8.41% | inhibition at 10 µM [6]: 2.83% | inhibition at 10 µM [7]: -4.97% | inhibition at 10 µM [8]: 7.32% | inhibition at 10 µM [9]: 0.59% | inhibition at 10 µM [10]: -4.93% | inhibition at 10 µM [11]: 5.71% | inhibition at 10 µM [12]: -54% | inhibition at 10 µM [13]: 3.85% | inhibition at 10 µM [14]: 5.55% | inhibition at 10 µM [15]: 0.49% | inhibition at 10 µM [16]: 5.48% | inhibition at 10 µM [17]: -15.4% | inhibition at 10 µM [18]: -4.25% | inhibition at 10 µM [19]: -1.79% | inhibition at 10 µM [20]: 5.18% | inhibition at 10 µM [21]: -14.2% | inhibition at 10 µM [22]: 38.4% | inhibition at 10 µM [23]: 26.7% | inhibition at 10 µM [24]: -8.67% | inhibition at 10 µM [25]: 4.32% | inhibition at 10 µM [26]: -1.23% | inhibition at 10 µM [27]: -1.25% | Positive Cytostatic Effect (cell lines with percent growth from 0 to 50 / total number of cell lines) [28]: 0/59 | Positive Cytotoxic Effect (cell lines with percent growth of <0 / total number of cell lines) [28]: 0/59 | Sensitive/Total Cell Lines [28]: 0/59 | antiproliferative activity (in words) [28]: weak antiproliferative activity | Mean Growth Percent [28]: 0.13 | inhibition at 10 µM [28]: -54 to 38.4% | inhibition at 10 µM [29]: -4.48%

From article PMC11124822, “Discovery and Anticancer Screening of Novel Oxindole-Based Derivative Bearing Pyridyl Group as Potent and Selective Dual FLT3/CDK2 Kinase Inhibitor” (Pharmaceuticals, 2024)
